pIC50, pKi: −log10 of the molar value. Like-named read-outs stand apart in the source and are kept apart here.
Key:
[1] = test system: JAK1-dependent STAT6 phosphorylation in BEAS-2B human bronchial epithelial cells; assay: JAK1 pathway assay: IL-13 stimulated STAT6 phosphorylation in BEAS-2B cells; type: cell-based; conditions: BEAS-2B cells, IL-13 stimulation, read-out: IL-13 p-STAT6 BEAS-2B IC50
Description: JAK1 Pathway Assay in Cell Lines was Carried Out as Follows:
Inhibitor potency (EC50) was determined in cell-based assays designed to measure JAK1 dependent STAT phosphorylation.
In one assay approach, TF-1 human erythroleukemia cells obtained from the American Type Culture Collection (ATCC; Manassas, Va.) were used to measure JAK1-dependent STAT6 phosphorylation downstream of IL-13 stimulation. Prior to use in the assays, TF-1 cells were starved of GM-CSF overnight in OptiMEM medium (Life Technologies, Grand Island, N.Y.) supplemented with 0.5% charcoal/dextran stripped fetal bovine serum (FBS), 0.1 mM non-essential amino acids (NEAA), and 1 mM sodium pyruvate. The assays were run in 384-well plates in serum-free OptiMEM medium using 300,000 cells per well. In a second assay approach, BEAS-2B human bronchial epithelial cells obtained from ATCC were plated at 100,000 cells per well of a 96-well plate one day prior to the experiment. The BEAS-2B assay was run in complete growth medium (bronchial epithelial basal medium plus bulletkit; Lonza; Basel, Switzerland).
Test compounds were serially diluted 1:2 in DMSO and then diluted 1:50 in medium just before use. Diluted compounds were added to the cells, for a final DMSO concentration of 0.2%, and incubated for 30 min (for the TF-1 assay) or 1 hr (for the BEAS-2B assay) at 37° C. Then, cells were stimulated with human recombinant cytokine at their respective EC90 concentrations, as previously determined for each individual lot. Cells were stimulated with IL-13 (R&D Systems, Minneapolis, Minn.) for 15 min at 37° C. […] The resultant samples were frozen in the plates at −80° C. Compound mediated inhibition of STAT6 phosphorylation was measured in the cell lysates using MesoScale Discovery (MSD) technology (Gaithersburg, Md.).

[2] = molecular target: isolated recombinant JAK1 kinase domain (Homo sapiens (Human), UniProt P23458); assay: JAK1 enzyme assay (Caliper LabChip, Ki); type: biochemical
Description: The activity of the isolated recombinant JAK1 and JAK2 kinase domain was measured by monitoring phosphorylation of a peptide derived from JAK3 ([…] fluorescently labeled on the N-terminus with 5-carboxyfluorescein) using the Caliper LabChip R technology (Caliper Life Sciences, Hopkinton, Mass.).

[3] = molecular target: isolated recombinant JAK2 kinase domain (Homo sapiens (Human), UniProt O60674); assay: JAK2 enzyme assay (Caliper LabChip, Ki)
Sequence of isolated recombinant JAK2 kinase domain (O60674 849-1124): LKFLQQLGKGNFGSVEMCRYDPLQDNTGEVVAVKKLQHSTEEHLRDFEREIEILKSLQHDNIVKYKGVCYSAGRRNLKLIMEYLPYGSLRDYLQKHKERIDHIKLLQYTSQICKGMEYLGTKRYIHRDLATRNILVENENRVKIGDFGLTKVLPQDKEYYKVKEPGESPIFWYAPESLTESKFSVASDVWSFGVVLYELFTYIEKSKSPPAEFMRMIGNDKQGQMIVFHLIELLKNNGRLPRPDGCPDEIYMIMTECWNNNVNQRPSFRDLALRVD

Sequence of isolated recombinant JAK1 kinase domain (P23458 875-1153): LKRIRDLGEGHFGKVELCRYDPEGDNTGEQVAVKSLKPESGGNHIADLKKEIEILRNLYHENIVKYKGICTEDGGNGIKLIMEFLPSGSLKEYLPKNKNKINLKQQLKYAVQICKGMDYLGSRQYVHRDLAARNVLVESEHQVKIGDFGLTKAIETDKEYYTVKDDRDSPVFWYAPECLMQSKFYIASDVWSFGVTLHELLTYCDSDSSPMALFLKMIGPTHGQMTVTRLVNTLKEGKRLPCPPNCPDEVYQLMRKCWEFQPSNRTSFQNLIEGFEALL

CC(C)(C)OC(=O)N1CCN(C(=O)c2cc3cc(OC(F)F)c(-c4n[nH]cc4NC(=O)c4cnn5cccnc45)cc3s2)CC1 [Example 9, tert-Butyl 4-(5-(difluoromethoxy)-6-(4-(pyrazolo[1,5-a]pyrimidine-3-carboxamido)-1H-pyrazol-3-yl)benzo[b]thiophene-2-carbonyl)piperazine-1-carboxylate]
pIC50 ([1]; Homo sapiens, BEAS-2B): 6.82 | pKi [2]: 8.40 | pKi ([3]; read-out: JAK2 Ki): 8.55

O=C(Nc1c[nH]nc1-c1cc2sc(C(=O)N3CCNCC3)cc2cc1OC(F)F)c1cnn2cccnc12 [Example 10, N-(3-(5-(difluoromethoxy)-2-(piperazine-1-carbonyl)benzo[b]thiophen-6-yl)-1H-pyrazol-4-yl)pyrazolo[1,5-a]pyrimidine-3-carboxamide]
pIC50 ([1]; Homo sapiens, BEAS-2B): < 6.00 | pKi [2]: 8.34 | pKi ([3]; read-out: JAK2 Ki): 8.70

O=C(Nc1c[nH]nc1-c1cc2c(cc1OC(F)F)NCCO2)c1cnn2cccnc12 [Example 11]
pIC50 ([1]; Homo sapiens, BEAS-2B): 8.40 | pKi [2]: 10.00 | pKi ([3]; read-out: JAK2 Ki): 10.10

O=C(Nc1c[nH]nc1-c1cc2c(cc1OC(F)F)NCCS2)c1cnn2cccnc12 [Example 12, N-(3-(6-(difluoromethoxy)-3,4-dihydro-2H-benzo[b][1,4]thiazin-7-yl)-1H-pyrazol-4-yl)pyrazolo[1,5-a]pyrimidine-3-carboxamide]
pIC50 ([1]; Homo sapiens, BEAS-2B): 8.22 | pKi [2]: 10.05 | pKi ([3]; read-out: JAK2 Ki): 10.22

NCCn1cc(NC(=O)c2cnn3cccnc23)c(-c2cc3c(cc2OC(F)F)NCCS3)n1 [Example 13, N-(1-(2-aminoethyl)-3-(6-(difluoromethoxy)-3,4-dihydro-2H-benzo[b][1,4]thiazin-7-yl)-1H-pyrazol-4-yl)pyrazolo[1,5-a]pyrimidine-3-carboxamide]
pIC50 ([1]; Homo sapiens, BEAS-2B): 7.70 | pKi [2]: 9.74 | pKi ([3]; read-out: JAK2 Ki): 9.89

O=C1CSc2cc(-c3n[nH]cc3NC(=O)c3cnn4cccnc34)c(OC(F)F)cc2N1 [Example 14, N-[3-[6-(difluoromethoxy)-3-oxo-3,4-dihydro-2H-1,4-benzothiazin-7-yl]-1H-pyrazol-4-yl]pyrazolo[1,5-a]pyrimidine-3-carboxamide]
pIC50 ([1]; Homo sapiens, BEAS-2B): 7.57 | pKi [2]: 10.30 | pKi ([3]; read-out: JAK2 Ki): 10.40

O=C(Nc1c[nH]nc1-c1cc2c(cc1OC(F)F)CCO2)c1cnn2cccnc12 [Example 16, N-(3-(5-(difluoromethoxy)-2,3-dihydrobenzofuran-6-yl)-1H-pyrazol-4-yl)pyrazolo[1,5-a]pyrimidine-3-carboxamide]
pIC50 ([1]; Homo sapiens, BEAS-2B): 8.30 | pKi [2]: 9.68 | pKi ([3]; read-out: JAK2 Ki): 10.05

O=C(Nc1c[nH]nc1-c1cc2c(cc1OC(F)F)CCCO2)c1cnn2cccnc12 [Example 17, N-[3-[6-(difluoromethoxy)-3,4-dihydro-2H-1-benzopyran-7-yl]-H-pyrazol-4-yl]pyrazolo[1,5-a]pyrimidine-3-carboxamide]
pIC50 ([1]; Homo sapiens, BEAS-2B): 7.85 | pKi [2]: 9.49 | pKi ([3]; read-out: JAK2 Ki): 9.85

COC(=O)Cn1cc(NC(=O)c2cnn3cccnc23)c(-c2cc3sc(C#N)cc3cc2OC(F)F)n1 [Example 19, Methyl 2-(3-(2-cyano-5-(difluoromethoxy)benzo[b]thiophen-6-yl)-4-(pyrazolo[1,5-a]pyrimidine-3-carboxamido)-1H-pyrazol-1-yl)acetate]
pIC50 ([1]; Homo sapiens, BEAS-2B): 7.68 | pKi [2]: 9.52 | pKi ([3]; read-out: JAK2 Ki): 9.48

Cn1cc(NC(=O)c2cnn3cccnc23)c(-c2cc3sc(C(=O)N4CCN(C(=O)OC(C)(C)C)CC4)cc3cc2OC(F)F)n1 [Example 20, tert-Butyl 4-(5-(difluoromethoxy)-6-(1-methyl-4-(pyrazolo[1,5-a]pyrimidine-3-carboxamido)-1H-pyrazol-3-yl)benzo[b]thiophene-2-carbonyl)piperazine-1-carboxylate]
pIC50 ([1]; Homo sapiens, BEAS-2B): 6.73 | pKi [2]: 8.25 | pKi ([3]; read-out: JAK2 Ki): 8.35

O=C(Nc1c[nH]nc1-c1cc2cn[nH]c2cc1OC(F)F)c1cnn2cccnc12 [Example 21, N-(3-(6-(difluoromethoxy)-1H-indazol-5-yl)-1H-pyrazol-4-yl)pyrazolo[1,5-a]pyrimidine-3-carboxamide]
pIC50 ([1]; Homo sapiens, BEAS-2B): 7.43 | pKi [2]: 10.15 | pKi [3]: 10.30

COc1cc2cc(C)sc2cc1-c1n[nH]cc1NC(=O)c1cnn2cccnc12 [Example 22, N-(3-(5-methoxy-2-methylbenzo[b]thiophen-6-yl)-1H-pyrazol-4-yl)pyrazolo[1,5-a]pyrimidine-3-carboxamide]
pIC50 ([1]; Homo sapiens, BEAS-2B): 8.22 | pKi [2]: 9.72 | pKi ([3]; read-out: JAK2 Ki): 9.92

COc1cc2sc(C#N)cc2cc1-c1n[nH]cc1NC(=O)c1cnn2cccnc12 [Example 24, N-(3-(2-cyano-6-methoxybenzo[b]thiophen-5-yl)-H-pyrazol-4-yl)pyrazolo[1,5-a]pyrimidine-3-carboxamide]
pIC50 ([1]; Homo sapiens, BEAS-2B): 7.85 | pKi [2]: 9.39 | pKi ([3]; read-out: JAK2 Ki): 9.57

Cc1cc2cc(OC(F)F)c(-c3n[nH]cc3NC(=O)c3cnn4cccnc34)cc2s1 [Example 25, N-(3-(5-(difluoromethoxy)-2-methylbenzo[b]thiophen-6-yl)-1H-pyrazol-4-yl)pyrazolo[1,5-a]pyrimidine-3-carboxamide]
pIC50 ([1]; Homo sapiens, BEAS-2B): 8.30 | pKi [2]: 9.96 | pKi ([3]; read-out: JAK2 Ki): 10.22

O=C(Nc1c[nH]nc1-c1cc2c(cc1OC(F)F)CCC2)c1cnn2cccnc12 [Example 26, N-[3-[6-(difluoromethoxy)indan-5-yl]-1H-pyrazol-4-yl]pyrazolo[1,5-a]pyrimidine-3-carboxamide]
pIC50 ([1]; Homo sapiens, BEAS-2B): 8.10 | pKi [2]: 9.72 | pKi ([3]; read-out: JAK2 Ki): 10.10

COc1cc2c(cc1-c1n[nH]cc1NC(=O)c1cnn3cccnc13)CCC2 [Example 27, N-[3-(6-methoxyindan-5-yl)-1H-pyrazol-4-yl]pyrazolo[1,5-a]pyrimidine-3-carboxamide]
pIC50 ([1]; Homo sapiens, BEAS-2B): 8.22 | pKi [2]: 9.05 | pKi ([3]; read-out: JAK2 Ki): 9.47

COc1cc2cnccc2cc1-c1n[nH]cc1NC(=O)c1cnn2cccnc12 [Example 29, N-[3-(7-methoxy-6-isoquinolyl)-1H-pyrazol-4-yl]pyrazolo[1,5-a]pyrimidine-3-carboxamide]
pIC50 ([1]; Homo sapiens, BEAS-2B): 7.07 | pKi [2]: 9.08 | pKi ([3]; read-out: JAK2 Ki): 9.31

COc1cc2[nH]ncc2cc1-c1n[nH]cc1NC(=O)c1cnn2cccnc12 [Example 30, N-[3-(6-methoxy-1H-indazol-5-yl)-1H-pyrazol-4-yl]pyrazolo[1,5-a]pyrimidine-3-carboxamide]
pIC50 [1]: 6.43 | pKi [2]: 9.52 | pKi ([3]; read-out: JAK2 Ki): 9.70

COc1cc2[nH]cnc2cc1-c1n[nH]cc1NC(=O)c1cnn2cccnc12 [Example 31, N-[3-(6-methoxy-1H-benzimidazol-5-yl)-1H-pyrazol-4-yl]pyrazolo[1,5-a]pyrimidine-3-carboxamide]
pIC50 ([1]; Homo sapiens, BEAS-2B): 5.16 | pKi [2]: 8.68 | pKi ([3]; read-out: JAK2 Ki): 9.05

COc1cc2cnsc2cc1-c1n[nH]cc1NC(=O)c1cnn2cccnc12 [Example 32, N-[3-(5-methoxy-1,2-benzothiazol-6-yl)-1H-pyrazol-4-yl]pyrazolo[1,5-a]pyrimidine-3-carboxamide]
pIC50 ([1]; Homo sapiens, BEAS-2B): 8.70 | pKi [2]: 9.80 | pKi ([3]; read-out: JAK2 Ki): 9.96

COc1cc2sncc2cc1-c1n[nH]cc1NC(=O)c1cnn2cccnc12 [Example 33, N-[3-(6-methoxy-1,2-benzothiazol-5-yl)-1H-pyrazol-4-yl]pyrazolo[1,5-a]pyrimidine-3-carboxamide]
pIC50 ([1]; Homo sapiens, BEAS-2B): 7.68 | pKi [2]: 9.04 | pKi ([3]; read-out: JAK2 Ki): 9.40

COc1cc2sccc2cc1-c1[nH]ncc1NC(=O)c1cnn2cccnc12 [Example 34, N-[5-(6-methoxybenzothiophen-5-yl)-1H-pyrazol-4-yl]pyrazolo[1,5-a]pyrimidine-3-carboxamide]
pIC50 ([1]; Homo sapiens, BEAS-2B): 8.00 | pKi [2]: 9.22 | pKi ([3]; read-out: JAK2 Ki): 9.72

COc1cc2ccsc2cc1-c1n[nH]cc1NC(=O)c1cnn2cccnc12 [Example 35, N-[3-(5-methoxybenzothiophen-6-yl)-1H-pyrazol-4-yl]pyrazolo[1,5-a]pyrimidine-3-carboxamide]
pIC50 ([1]; Homo sapiens, BEAS-2B): 8.52 | pKi [2]: 9.55 | pKi ([3]; read-out: JAK2 Ki): 9.96

CCOC(=O)c1cc2cc(-c3n[nH]cc3NC(=O)c3cnn4cccnc34)c(OC)cc2s1 [Example 36, ethyl 6-methoxy-5-[4-(pyrazolo[1,5-a]pyrimidine-3-carbonylamino)-1H-pyrazol-3-yl]benzothiophene-2-carboxylate]
pIC50 ([1]; Homo sapiens, BEAS-2B): 7.49 | pKi [2]: 9.19 | pKi ([3]; read-out: JAK2 Ki): 9.31

CC1CNc2cc(OC(F)F)c(-c3n[nH]cc3NC(=O)c3cnn4cccnc34)cc2S1 (stereo not drawn) [Example 37, N-[3-[6-(difluoromethoxy)-2-methyl-3,4-dihydro-2H-1,4-benzothiazin-7-yl]-1H-pyrazol-4-yl]pyrazolo[1,5-a]pyrimidine-3-carboxamide]
pIC50 ([1]; Homo sapiens, BEAS-2B): 8.30 | pKi [2]: 10.15 | pKi ([3]; read-out: JAK2 Ki): 10.30

Reference: US11155557B2, “Pyrazolopyrimidine compounds and methods of use thereof” (Genentech, Inc., priority 2016, dated 2021)
